melting point [°C]	Structure (SMILES)
93 to 95	CCc1sc2c(c1C(=O)CCCN1CCC(c3noc4cc(F)ccc34)CC1)CCN(C(C)=O)C2
124 to 125	CCOC(=O)c1c(-c2ccccc2)c2cc(Cl)ccc2n(C)c1=O
151 to 159	O=C(O)COc1c(-c2cc(Cl)cc(Cl)c2)cc(C(=O)NCCCCCCc2ccccc2)cc1-c1cc(Cl)cc(Cl)c1
71 to 76	Cc1c(Cc2ccccc2)c(=O)oc2cc(OCC3=NNN(C)N3)cc(OCC3=NNN(C)N3)c12
130 to 140	O=C(O)c1cc(N2CCCCC2)ccc1[N+](=O)[O-]
95 to 96	C#Cc1ccc(OC)c(OCC)c1
144	CCC1CC(=O)N(Cc2ccc(NC(=O)C(C)C)cc2)N=C1c1ccc(OC)c(OC)c1 (stereo unspecified)
246 to 249	COc1cc2ncc(C#N)c(Nc3cccc(N(C)C)c3)c2cc1OC
128 to 129	COC(=O)NC=Cc1ccc(OCC(O)CNC(C)C)cc1 (stereo unspecified)
289 to 290	O=C(O)c1cc(-c2ccc(C(F)(F)F)cc2)nc(-c2ccc(C(F)(F)F)cc2)c1
83 to 85	CC1C(=O)CCS1(=O)=O (stereo unspecified)
90 to 93	O=S(=O)(Nc1ccc(F)cc1C(=NOc1ccc(Cl)cc1)c1ccccc1)C(F)(F)F
195 to 197	COc1ccc(C)c2nc(Cc3ccc(Cl)cc3)[nH]c12
164 to 166	COC(=O)c1cc(-n2c(=O)c3c(n(C)c2=O)CCC3)ccc1Cl
176 to 177	CC(C)C(C)CCC(C)C1CC(=O)C2=C3C(=O)CC4CC(OC(=O)c5ccccc5)CCC4(C)C3CCC21C (stereo unspecified)
186	Cc1ccc(N2CCN(S(=O)(=O)c3cccc(/C=C/C(=O)NO)c3)CC2C)cc1 (stereo unspecified)
190 to 191	COc1cc(C2C3=C(COC3=O)Nc3ccc4nc(C)sc4c32)ccc1[N+](=O)[O-] (stereo unspecified)
108 to 112	CC(=O)Nc1cccc(OC(Cn2ccnc2)c2ccc(Cl)cc2Cl)c1 (stereo unspecified)

melting point [°C]	Structure (SMILES)
69	CC(C(O)CCc1ccc(OC(F)(F)F)cc1)n1cncn1 (stereo unspecified)
108 to 110	CN1/C(=C\C(=S)NC(=O)c2ccccc2)C(C)(C)c2ccccc21
42 to 44	CCCCCCCCCCCCCCCCOCCO
140 to 141	CCOc1ccc(-n2c(NCc3ccc(Br)cc3)nc3ccc(Cl)cc32)cc1
144	CC1(O[Si](C)(C)C(C)(C)C)CN(c2ccc(N3C[C@H](CO)OC3=O)cc2F)C1
79 to 80	CON(C)C(=O)Nc1ccc(OCCc2ccc3c(c2)CC(C)(C)O3)nc1
159	O=[N+]([O-])c1cccc(NC(=S)NCc2cccnc2)c1
144 to 146	CCCCOc1ccc(C(=O)NCCC(=O)O)cc1
118 to 120	CCOC(=O)C1=C(CC)NCN(c2ccc(Cl)cc2)C1=O
210 to 212	CC(C)Nc1nc2ccccn2c(=O)c1-c1ccc(NC2CCN(C(=O)OC(C)(C)C)C2)cc1 (stereo unspecified)
168 to 170	Cc1ccc2c(c1)C(=O)N(Nc1ccccc1)C2=O
160 to 161	CCOC(=O)Cc1nn(Cc2nc3cc(Br)ccc3s2)c(=O)c2ccccc12
168 to 172	O=C(c1ccc(F)cc1)N1CCC[C@H](c2noc([C@@H](O)c3ccccc3)n2)C1
295 to 297	NS(=O)(=O)c1cc2cc[nH]c(=O)c2s1
177	Cc1cc(-c2cc(C(F)(F)F)n3ncc(-c4cccnc4)c3n2)ccc1C(F)(F)F
38 to 39	OCCOc1ccsc1
188	O=C1C=CC2(C=C1)N=C(N1CCN(Cc3ccc(F)cc3)CC1)C=C2c1ccccc1

Structure (SMILES)	melting point [°C]
CC(C)(C)[Si](C)(C)Oc1cccc(C2(Br)C(=O)NC(=O)NC2=O)c1	170 to 172
